Results from publication PMC5218480 (PLoS ONE, 2017).

Tested on: MV-4-11 cells
Experiment: Gene expression microarray analysis (Affymetrix PrimeView) and GSEA
Format: cell-based, human
Set-up: RFU PODN (11730768_x_at) / Fold change /veh PODN (11730768_x_at) / RFU LINC00158 (11744669_a_at) / Fold change /veh LINC00158 (11744669_a_at) / RFU DUSP10 (11751237_a_at) / Fold change /veh DUSP10 (11751237_a_at) / RFU ID3 (11757404_x_at) / Fold change /veh ID3 (11757404_x_at) / RFU PLEKHG5 (11737974_s_at) / Fold change /veh PLEKHG5 (11737974_s_at) / RFU LRRC4B (11730491_at) / Fold change /veh LRRC4B (11730491_at) / RFU GIMAP4 (11747438_a_at) / Fold change /veh GIMAP4 (11747438_a_at) / RFU KRT8 (11758183_x_at) / Fold change /veh KRT8 (11758183_x_at) / RFU CNN1 (11734310_a_at) / Fold change /veh CNN1 (11734310_a_at) / RFU VPS37D (11726825_at) / Fold change /veh VPS37D (11726825_at) / RFU C10orf10 (11716522_x_at) / Fold change /veh C10orf10 (11716522_x_at) / RFU KIR2DL2 /// KIR2DL4 /// KIR2DL5A /// KIR2DL5B /// KIR2DS1 /// KIR2DS2 /// KIR2DS3 /// KIR2DS4 /// KIR3DL3 /// KIR3DL3 /// KIR3DS1 (11738374_at) / Fold change /veh KIR2DL2 /// KIR2DL4 /// KIR2DL5A /// KIR2DL5B /// KIR2DS1 /// KIR2DS2 /// KIR2DS3 /// KIR2DS4 /// KIR3DL3 /// KIR3DL3 /// KIR3DS1 (11738374_at) / RFU C1QL1 (11718748_at) / Fold change /veh C1QL1 (11718748_at) / RFU TMPRSS4 (11747572_a_at) / Fold change /veh TMPRSS4 (11747572_a_at) / RFU HAMP (11756126_x_at) / Fold change /veh HAMP (11756126_x_at) / RFU RNFT2 (11725882_a_at) / Fold change /veh RNFT2 (11725882_a_at) / RFU NR4A2 (11747474_a_at) / Fold change /veh NR4A2 (11747474_a_at) / RFU ABCC12 (11746883_a_at) / Fold change /veh ABCC12 (11746883_a_at) / RFU TMEM136 (11760407_x_at) / Fold change /veh TMEM136 (11760407_x_at) / RFU CLDN22 /// WWC2 (11732394_at) / Fold change /veh CLDN22 /// WWC2 (11732394_at) / RFU HLA-DPB1 (11760878_x_at) / Fold change /veh HLA-DPB1 (11760878_x_at) / RFU SPINT1 (11716480_a_at) / Fold change /veh SPINT1 (11716480_a_at) / RFU GAP43 (11754022_s_at) / Fold change /veh GAP43 (11754022_s_at) / RFU A4GNT (11735810_at) / Fold change /veh A4GNT (11735810_at) / RFU PRB3 (11715151_x_at) / Fold change /veh PRB3 (11715151_x_at) / RFU TUBB4B (11761932_at) / Fold change /veh TUBB4B (11761932_at) / RFU CAPN14 (11732068_a_at) / Fold change /veh CAPN14 (11732068_a_at) / RFU TMCC2 (11721928_a_at) / Fold change /veh TMCC2 (11721928_a_at) / RFU IRGQ (11745062_a_at) / Fold change /veh IRGQ (11745062_a_at) / RFU FAM174B (11720279_a_at) / Fold change /veh FAM174B (11720279_a_at) / RFU TMPRSS4 (11748680_a_at) / Fold change /veh TMPRSS4 (11748680_a_at) / RFU FAM212B (11763350_a_at) / Fold change /veh FAM212B (11763350_a_at) / RFU PLEKHG5 (11743358_a_at) / Fold change /veh PLEKHG5 (11743358_a_at) / RFU ZSCAN30 (11745921_a_at) / Fold change /veh ZSCAN30 (11745921_a_at) / RFU CMKLR1 (11741424_a_at) / Fold change /veh CMKLR1 (11741424_a_at) / RFU LOC101060620 /// MAPK8IP1 (11723275_at) / Fold change /veh LOC101060620 /// MAPK8IP1 (11723275_at) / RFU SPTSSB (11747773_x_at) / Fold change /veh SPTSSB (11747773_x_at) / RFU PRSS12 (11739890_at) / Fold change /veh PRSS12 (11739890_at) / RFU BIN1 (11741810_x_at) / Fold change /veh BIN1 (11741810_x_at) / RFU WNT11 (11732464_a_at) / Fold change /veh WNT11 (11732464_a_at) / RFU C10orf10 (11716521_a_at) / Fold change /veh C10orf10 (11716521_a_at) / RFU C5orf56 (11738089_at) / Fold change /veh C5orf56 (11738089_at) / RFU CYB561 (11721691_x_at) / Fold change /veh CYB561 (11721691_x_at) / RFU ANKRD19P (11752326_a_at) / Fold change /veh ANKRD19P (11752326_a_at) / RFU OR2T12 /// OR2T33 /// OR2T8 (11738714_s_at) / Fold change /veh OR2T12 /// OR2T33 /// OR2T8 (11738714_s_at) / RFU VCAN (11748164_a_at) / Fold change /veh VCAN (11748164_a_at) / RFU JSRP1 (11732532_at) / Fold change /veh JSRP1 (11732532_at) / RFU KRTAP10-11 (11738290_x_at) / Fold change /veh KRTAP10-11 (11738290_x_at) / RFU MYO3A (11730013_a_at) / Fold change /veh MYO3A (11730013_a_at) / RFU EBF3 (11725865_a_at) / Fold change /veh EBF3 (11725865_a_at) / RFU CAMK2N1 (11719241_x_at) / Fold change /veh CAMK2N1 (11719241_x_at) / RFU C5orf56 (11738088_a_at) / Fold change /veh C5orf56 (11738088_a_at) / RFU OLFML3 (11715873_a_at) / Fold change /veh OLFML3 (11715873_a_at) / RFU LOC100653217 /// NTM (11731650_a_at) / Fold change /veh LOC100653217 /// NTM (11731650_a_at) / RFU MAPK11 (11762145_a_at) / Fold change /veh MAPK11 (11762145_a_at) / RFU FIZ1 (11724087_x_at) / Fold change /veh FIZ1 (11724087_x_at) / RFU OASL (11726364_x_at) / Fold change /veh OASL (11726364_x_at) / RFU SOX15 (11748057_x_at) / Fold change /veh SOX15 (11748057_x_at) / RFU CD79A (11719716_a_at) / Fold change /veh CD79A (11719716_a_at) / RFU HIST1H1D (11736915_at) / Fold change /veh HIST1H1D (11736915_at) / RFU CASKIN2 (11723855_a_at) / Fold change /veh CASKIN2 (11723855_a_at) / RFU LOC730098 (11760151_x_at) / Fold change /veh LOC730098 (11760151_x_at) / RFU OR4N2 (11742367_at) / Fold change /veh OR4N2 (11742367_at) / RFU PRRT2 (11749266_a_at) / Fold change /veh PRRT2 (11749266_a_at) / RFU SNX32 (11753110_a_at) / Fold change /veh SNX32 (11753110_a_at) / RFU CDHR5 (11726645_a_at) / Fold change /veh CDHR5 (11726645_a_at) / RFU RCAN1 (11760418_a_at) / Fold change /veh RCAN1 (11760418_a_at) / RFU FAM167A (11723789_a_at) / Fold change /veh FAM167A (11723789_a_at) / RFU FAM26E (11764081_at) / Fold change /veh FAM26E (11764081_at) / RFU ISYNA1 (11749810_s_at) / Fold change /veh ISYNA1 (11749810_s_at) / RFU ACY1 (11761880_at) / Fold change /veh ACY1 (11761880_at) / RFU 11764098_at / Fold change /veh 11764098_at / RFU SAMD14 (11745864_x_at) / Fold change /veh SAMD14 (11745864_x_at) / RFU NPB (11741838_a_at) / Fold change /veh NPB (11741838_a_at) / RFU TMPRSS6 (11731388_a_at) / Fold change /veh TMPRSS6 (11731388_a_at) / RFU KRTAP10-2 (11738614_at) / Fold change /veh KRTAP10-2 (11738614_at) / RFU ARHGAP8 /// PRR5-ARHGAP8 (11727945_x_at) / Fold change /veh ARHGAP8 /// PRR5-ARHGAP8 (11727945_x_at) / RFU KRTAP5-7 /// NADSYN1 (11734609_at) / Fold change /veh KRTAP5-7 /// NADSYN1 (11734609_at) / RFU RASL12 (11751679_a_at) / Fold change /veh RASL12 (11751679_a_at) / RFU CDKN2B (11736163_a_at) / Fold change /veh CDKN2B (11736163_a_at) / RFU PRF1 (11729649_at) / Fold change /veh PRF1 (11729649_at) / RFU, ZNF638 /// ZNF638-IT1 / Fold change vs veh, ZNF638 /// ZNF638-IT1 / RFU, PANK3 / Fold change vs veh, PANK3 / RFU, SH3YL1 / Fold change vs veh, SH3YL1 / RFU, ZEB2 / Fold change vs veh, ZEB2 / RFU, NRIP1 / Fold change vs veh, NRIP1 / RFU, PTTG1IP / Fold change vs veh, PTTG1IP / RFU, CAPN2 / Fold change vs veh, CAPN2 / RFU, MED14 / Fold change vs veh, MED14 / RFU, SNORA58 / Fold change vs veh, SNORA58 / RFU, C1orf63 / Fold change vs veh, C1orf63 / RFU, LRRFIP1 / Fold change vs veh, LRRFIP1 / RFU, NDUFAF7 / Fold change vs veh, NDUFAF7 / RFU, SLC12A2 / Fold change vs veh, SLC12A2 / RFU, IBTK / Fold change vs veh, IBTK / RFU, ESF1 / Fold change vs veh, ESF1 / Fold change vs veh, TMEM50B / RFU, TAOK1 / Fold change vs veh, TAOK1 / RFU, ACBD3 / Fold change vs veh, ACBD3 / RFU, TMA16 / Fold change vs veh, TMA16 / RFU, RWDD3 / Fold change vs veh, RWDD3 / RFU, BCAT1 / Fold change vs veh, BCAT1 / RFU, EDEM3 / Fold change vs veh, EDEM3 / RFU, TMEM33 / Fold change vs veh, TMEM33 / RFU, WDR75 / Fold change vs veh, WDR75 / RFU, AHCTF1 / Fold change vs veh, AHCTF1 / RFU, TFRC / Fold change vs veh, TFRC / RFU, ZDHHC17 / Fold change vs veh, ZDHHC17 / RFU, NOM1 / Fold change vs veh, NOM1 / RFU, ARL8B / Fold change vs veh, ARL8B / RFU, ZBTB11 / Fold change vs veh, ZBTB11 / RFU, TAMM41 / Fold change vs veh, TAMM41 / RFU, KIAA1704 /// LOC100996395 / Fold change vs veh, KIAA1704 /// LOC100996395 / RFU, ING1 / Fold change vs veh, ING1 / RFU, TRMT61B / Fold change vs veh, TRMT61B / RFU, FUBP3 / Fold change vs veh, FUBP3 / RFU, TP53 / Fold change vs veh, TP53 / RFU, TNKS2 / Fold change vs veh, TNKS2 / RFU, ZFP14 / Fold change vs veh, ZFP14 / RFU, ACTR2 / Fold change vs veh, ACTR2 / RFU, PPP3R1 / Fold change vs veh, PPP3R1 / RFU, PIK3R1 / Fold change vs veh, PIK3R1 / RFU, HNRNPA1 / Fold change vs veh, HNRNPA1 / RFU, RNF170 / Fold change vs veh, RNF170 / RFU, ZNF28 / Fold change vs veh, ZNF28 / RFU, RNGTT / Fold change vs veh, RNGTT / RFU, OGT / Fold change vs veh, OGT / RFU, BRD1 / Fold change vs veh, BRD1 / RFU, MARS / Fold change vs veh, MARS / RFU, ZNF655 / Fold change vs veh, ZNF655 / RFU, FAHD1 / Fold change vs veh, FAHD1 / RFU, BDP1 / Fold change vs veh, BDP1 / RFU, LRRCC1 / Fold change vs veh, LRRCC1 / RFU, ARID1A / Fold change vs veh, ARID1A / RFU, ZNF146 / Fold change vs veh, ZNF146 / RFU, ZNF330 / Fold change vs veh, ZNF330 / RFU, GPN3 / Fold change vs veh, GPN3 / RFU, C9orf123 / Fold change vs veh, C9orf123 / RFU, N4BP2L2 / Fold change vs veh, N4BP2L2 / RFU, ARFIP1 / Fold change vs veh, ARFIP1 / RFU, FAM179B / Fold change vs veh, FAM179B / RFU, BCL10 / Fold change vs veh, BCL10 / RFU, UHRF1BP1L / Fold change vs veh, UHRF1BP1L / RFU, BET1 / Fold change vs veh, BET1 / RFU, CNOT2 / Fold change vs veh, CNOT2 / RFU, ZNF268 / Fold change vs veh, ZNF268 / Fold change vs veh, ZNF507 / RFU, DGCR2 / Fold change vs veh, DGCR2 / RFU, WDSUB1 / Fold change vs veh, WDSUB1 / Fold change vs veh, HSP90B1 /// MIR3652 / RFU, ADSS / Fold change vs veh, ADSS / RFU, GK / Fold change vs veh, GK / RFU, ZNF148 / Fold change vs veh, ZNF148 / RFU, TAF9 / Fold change vs veh, TAF9 / RFU, SLC1A5 / Fold change vs veh, SLC1A5 / RFU, SLMO2 / Fold change vs veh, SLMO2 / RFU, ABCC4 / Fold change vs veh, ABCC4 / RFU, LOC101060439 /// RAP1B / Fold change vs veh, LOC101060439 /// RAP1B / RFU, RFX7 / Fold change vs veh, RFX7 / RFU, GTPBP10 / Fold change vs veh, GTPBP10 / RFU, CNEP1R1 / Fold change vs veh, CNEP1R1 / RFU, BIVM-ERCC5 /// ERCC5 / Fold change vs veh, BIVM-ERCC5 /// ERCC5 / RFU, ILF3 / Fold change vs veh, ILF3 / RFU 11762660_at / Fold change /veh 11762660_at / RFU VCAN (11757783_s_at) / Fold change /veh VCAN (11757783_s_at) / RFU DDX43 (11728927_at) / Fold change /veh DDX43 (11728927_at) / RFU KRT8 (11758188_x_at) / Fold change /veh KRT8 (11758188_x_at) / RFU NKD1 (11759106_at) / Fold change /veh NKD1 (11759106_at) / RFU SRD5A1 (11742802_a_at) / Fold change /veh SRD5A1 (11742802_a_at) / RFU TPSAB1 /// TPSB2 (11721975_s_at) / Fold change /veh TPSAB1 /// TPSB2 (11721975_s_at) / RFU GSTM3 (11746129_a_at) / Fold change /veh GSTM3 (11746129_a_at) / RFU IL23R (11737362_x_at) / Fold change /veh IL23R (11737362_x_at) / RFU TMEM51 (11727254_a_at) / Fold change /veh TMEM51 (11727254_a_at) / RFU PIWIL2 (11732686_x_at) / Fold change /veh PIWIL2 (11732686_x_at) / RFU ORM1 (11744905_x_at) / Fold change /veh ORM1 (11744905_x_at) / RFU CCDC152 (11743942_at) / Fold change /veh CCDC152 (11743942_at) / RFU ECM1 (11717891_a_at) / Fold change /veh ECM1 (11717891_a_at) / RFU IL23R (11748794_a_at) / Fold change /veh IL23R (11748794_a_at) / RFU TNFAIP8L3 (11732012_x_at) / Fold change /veh TNFAIP8L3 (11732012_x_at) / RFU MBOAT4 (11741988_at) / Fold change /veh MBOAT4 (11741988_at) / RFU 11764193_at / Fold change /veh 11764193_at / RFU TMEM53 (11763286_at) / Fold change /veh TMEM53 (11763286_at) / RFU MAGEB2 (11727129_at) / Fold change /veh MAGEB2 (11727129_at) / RFU TMEM200A (11744735_a_at) / Fold change /veh TMEM200A (11744735_a_at) / RFU CCDC152 (11751479_a_at) / Fold change /veh CCDC152 (11751479_a_at) / RFU FAM211A (11726209_a_at) / Fold change /veh FAM211A (11726209_a_at) / RFU RGS16 (11746705_a_at) / Fold change /veh RGS16 (11746705_a_at) / RFU VCAN (11755009_s_at) / Fold change /veh VCAN (11755009_s_at) / RFU RHOB (11743442_s_at) / Fold change /veh RHOB (11743442_s_at) / RFU RGS16 (11720943_a_at) / Fold change /veh RGS16 (11720943_a_at) / RFU RGS16 (11720944_at) / Fold change /veh RGS16 (11720944_at) / RFU, VPS4B / Fold change vs veh, VPS4B / RFU, CREB1 / Fold change vs veh, CREB1 / RFU, DNAJC13 / Fold change vs veh, DNAJC13 / RFU, GNAQ / Fold change vs veh, GNAQ / RFU, CDK5R1 / Fold change vs veh, CDK5R1 / RFU, ZRANB3 / Fold change vs veh, ZRANB3 / RFU, CUL4A / Fold change vs veh, CUL4A / RFU, CCNY / Fold change vs veh, CCNY / RFU, UFL1 / Fold change vs veh, UFL1 / RFU, COG3 / Fold change vs veh, COG3 / RFU, DIAPH2 / Fold change vs veh, DIAPH2 / RFU, SKA2 / Fold change vs veh, SKA2 / RFU, AFF3 / Fold change vs veh, AFF3 / RFU, LMF1 / Fold change vs veh, LMF1 / RFU, IPO11 / Fold change vs veh, IPO11 / RFU, DFFB / Fold change vs veh, DFFB / RFU, FOXP1 / Fold change vs veh, FOXP1 / RFU, CARD8 / Fold change vs veh, CARD8 / RFU, STRN3 / Fold change vs veh, STRN3 / RFU, ADK / Fold change vs veh, ADK / RFU, RASSF2 / Fold change vs veh, RASSF2 / RFU, WIPF1 / Fold change vs veh, WIPF1 / RFU, LARP1B / Fold change vs veh, LARP1B / RFU, RASA1 / Fold change vs veh, RASA1 / RFU, RB1 / Fold change vs veh, RB1 / RFU, PPFIA1 / Fold change vs veh, PPFIA1 / RFU, MAT2A / Fold change vs veh, MAT2A / RFU, CCT5 / Fold change vs veh, CCT5 / RFU, WDR92 / Fold change vs veh, WDR92 / RFU, CUX1 / Fold change vs veh, CUX1 / RFU, TTC7A / Fold change vs veh, TTC7A / RFU, TMEM135 / Fold change vs veh, TMEM135 / RFU, DEPTOR / Fold change vs veh, DEPTOR / RFU, CPM / Fold change vs veh, CPM / RFU, DNAJB6 / Fold change vs veh, DNAJB6 / RFU, CACNA2D3 / Fold change vs veh, CACNA2D3 / RFU, DTX4 / Fold change vs veh, DTX4 / RFU, TFCP2 / Fold change vs veh, TFCP2 / RFU, GMCL1 /// GMCL1P1 / Fold change vs veh, GMCL1 /// GMCL1P1 / RFU, AEBP2 / Fold change vs veh, AEBP2 / RFU, SNHG1 /// SNORD22 /// SNORD25 /// SNORD26 /// SNORD27 /// SNORD28 /// SNORD29 /// SNORD31 / Fold change vs veh, SNHG1 /// SNORD22 /// SNORD25 /// SNORD26 /// SNORD27 /// SNORD28 /// SNORD29 /// SNORD31 / Fold change (Aza/veh), C12orf56 (ProbeSet 11735607_a_at) / Fold change (ACY-1035/veh), C12orf56 (ProbeSet 11735607_a_at) / Fold change (Aza/veh), FGFR1OP (ProbeSet 11751329_s_at) / Fold change (ACY-1035/veh), FGFR1OP (ProbeSet 11751329_s_at) / Fold change (Aza/veh), VPS36 (ProbeSet 11739960_a_at) / Fold change (ACY-1035/veh), VPS36 (ProbeSet 11739960_a_at) / RFU SYPL1 (11715823_x_at) / Fold change /veh SYPL1 (11715823_x_at) / RFU IGFBP7 (11715501_s_at) / Fold change /veh IGFBP7 (11715501_s_at) / RFU REEP3 (11722064_at) / Fold change /veh REEP3 (11722064_at) / RFU IGLL1 (11728026_x_at) / Fold change /veh IGLL1 (11728026_x_at): dose or concentration left out as unconfirmed
Details: MV-4-11 cells, 48 hours

Nc1ncn([C@@H]2O[C@H](CO)[C@@H](O)[C@H]2O)c(=O)n1 [azacitidine]
RFU MAPK11 (11762145_a_at): 24.54 RFU
